Target: T1, mAChR M1 (UniProt P08482)
T1 sequence (P08482 1-460): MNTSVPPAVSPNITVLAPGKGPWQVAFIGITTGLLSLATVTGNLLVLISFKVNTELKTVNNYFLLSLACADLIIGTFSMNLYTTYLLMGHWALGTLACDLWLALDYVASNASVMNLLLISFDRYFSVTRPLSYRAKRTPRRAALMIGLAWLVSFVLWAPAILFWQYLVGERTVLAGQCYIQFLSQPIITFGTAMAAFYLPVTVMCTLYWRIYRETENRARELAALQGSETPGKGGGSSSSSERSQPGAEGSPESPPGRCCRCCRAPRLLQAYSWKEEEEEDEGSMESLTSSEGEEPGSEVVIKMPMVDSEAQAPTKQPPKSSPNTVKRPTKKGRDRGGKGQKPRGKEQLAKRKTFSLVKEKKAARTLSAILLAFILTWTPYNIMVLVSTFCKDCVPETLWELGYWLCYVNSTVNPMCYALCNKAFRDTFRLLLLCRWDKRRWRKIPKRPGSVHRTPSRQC
Test: mAChR M1 cell-based functional assay (calcium mobilization, Fluo-4, FDSS)
Conditions: for Efficacy (% ACh maximum at 30 μM): maximal calcium flux response from curve fit or response at 30 μM compound, as % of the EC80 ACh response; for EC50: positive allosteric modulation of EC20 acetylcholine response, CHO-K1 cells expressing mAChR M1, read-out: Potency (EC50)
Protocol: Chinese hamster ovary (CHO-K1) cells stably expressing rat (r)M1 were purchased from the American Type Culture Collection and cultured according to their indicated protocol. […] To make stable rM2, hM2, rM3, hM4, and rM4 cell lines for use in calcium mobilization assays, these cells also were stably transfected with a chimeric G-protein (Gqi5) (provided by B. R. Conklin, University of California, San Francisco) using Lipofectamine 2000. rM1, hM1, rM3, hM3, rM5, and hM5 cells were grown in Ham's F-12 medium containing 10% heat-inactivated fetal bovine serum (FBS), 20 mM HEPES, and 50 μg/mL G418 sulfate. rM2-Gqi5, hM2-Gqi5, and hM4-Gqi5 cells were grown in the same medium also containing 500 μg/mL Hygromycin B. Stable rM4-Gqi5 cells were grown in DMEM containing 10% heat-inactivated FBS, 20 mM HEPES, 400 μg/mL G418 sulfate, and 500 μg/mL Hygromycin B.
For high throughput measurement of agonist-evoked increases in intracellular calcium, CHO-K1 cells stably expressing muscarinic receptors were plated in growth medium lacking G418 and hygromycin at 15,000 cells/20 μL/well in Greiner 384-well black-walled, tissue culture (TC)-treated, clear-bottom plates (VWR). Cells were incubated overnight at 37° C. and 5% CO2. […] Compound master plates were formatted in an 11 point CRC format (1:3 dilutions) in 100% DMSO with a starting concentration of 10 mM using the BRAVO liquid handler (Agilent). Test compound CRCs were then transferred to daughter plates (240 nL) using the Echo acoustic plate reformatter (Labcyte, Sunnyvale, Calif.) and then diluted into assay buffer (40 μL) to a 2× stock using a Thermo Fisher Combi (Thermo Fisher Scientific, Waltham, Mass.).
Calcium flux was measured using the Functional Drug Screening System (FDSS) 6000 (Hamamatsu Corporation, Tokyo, Japan) as an increase in the fluorescent static ratio. Compounds were applied to cells (20 μL, 2×) using the automated system of the FDSS 6000 at 4 s into the 300 s protocol and the data were collected at 1 Hz. […] Agonist activity was analyzed as a concentration-dependent increase in calcium mobilization upon compound addition. Positive allosteric modulator activity was analyzed as a concentration-dependent increase in the EC20 acetylcholine response. Antagonist activity was analyzed as a concentration-dependent decrease in the EC80 acetylcholine response. Concentration-response curves were generated using a four-parameter logistical equation in XLfit curve fitting software (IDBS, Bridgewater, N.J.) for Excel (Microsoft, Redmond, Wash.) or Prism (GraphPad Software, Inc., San Diego, Calif.).
The calcium mobilization assay was also used to determine “efficacy”. In the context of the assays carried out for the data in Table I, “efficacy” (% ACh at 30 μM) is defined as the maximal response in the calcium flux as determined by the sigmoidal curve fit of the concentration response curve, or in the absence of an acceptable curve fit, the response recorded at 30 μM test compound, stated as a percentage of the response elicited by a concentration of Ach that induces approximately 80% of a maximal (i.e. saturating) ACh response.

O=C(CS(=O)(=O)c1cn(Cc2cccc(-c3cccnc3F)c2)c2cc(F)cc(F)c12)Nc1ccccn1 [compound 24, 2-((4,6-difluoro-1-(3-(2-fluoropyridin-3-yl)benzyl)-1H-indol-3-yl)sulfonyl)-N-(pyridin-2-yl)acetamide]
Efficacy (% ACh maximum at 30 μM): 38%
EC50: 4.4 µM

O=C(CS(=O)(=O)c1cn(Cc2cccc(-c3cccnc3)c2)c2cc(F)cc(F)c12)Nc1ccccn1 [compound 25, 2-((4,6-difluoro-1-(3-(pyridin-3-yl)benzyl)-1H-indol-3-yl)sulfonyl)-N-(pyridin-2-yl)acetamide]
Efficacy (% ACh maximum at 30 μM): 57%
EC50: 4.6 µM

Cc1cc(NC(=O)CS(=O)(=O)c2cn(Cc3cccc(Cl)c3F)c3ccccc23)no1 [compound 26, 2-((1-(3-chloro-2-fluorobenzyl)-1H-indol-3-yl)sulfonyl)-N-(5-methylisoxazol-3-yl)acetamide]
Efficacy (% ACh maximum at 30 μM): 56%
EC50: 5.1 µM

O=C(CS(=O)(=O)c1cn(Cc2cccc(-c3ccc(F)nc3)c2)c2cc(F)cc(F)c12)Nc1ccccn1 [compound 27, 2-((4,6-difluoro-1-(3-(6-fluoropyridin-3-yl)benzyl)-1H-indol-3-yl)sulfonyl)-N-(pyridin-2-yl)acetamide]
Efficacy (% ACh maximum at 30 μM): 42%
EC50: 5.2 µM

Cc1cc(NC(=O)CS(=O)(=O)c2cn(Cc3cccc(F)c3)c3ccccc23)no1 [compound 28, 2-((1-(3-fluorobenzyl)-1H-indol-3-yl)sulfonyl)-N-(5-methylisoxazol-3-yl)acetamide]
EC50: 5.22 µM

Cc1cc(NC(=O)C[S+]([O-])c2cn(Cc3cccc(Cl)c3)c3ccccc23)no1 (centres unmarked) [compound 29, 2-((1-(3-chlorobenzyl)-1H-indol-3-yl)sulfinyl)-N-(5-methylisoxazol-3-yl)acetamide]
Efficacy (% ACh maximum at 30 μM): 93%
EC50: 5.23 µM

Cc1cc(NC(=O)CS(=O)(=O)c2cn(Cc3cccc(Br)c3)c3cc(F)cc(F)c23)no1 [compound 30, 2-((1-(3-bromobenzyl)-4,6-3-yl)sulfonyl)-N-(5-methylisoxazol-3-yl)acetamide]
Efficacy (% ACh maximum at 30 μM): 103%
EC50: 5.37 µM

Nc1cccc(Cn2cc(S(=O)(=O)CC(=O)Nc3ccccn3)c3c(F)cc(F)cc32)c1 [compound 31, 2-((1-(3-aminobenzyl)-4,6-difluoro-1H-indol-3-yl)sulfonyl)-N-(pyridin-2-yl)acetamide]
Efficacy (% ACh maximum at 30 μM): 69%
EC50: 5.6 µM

Cc1cc(NC(=O)CS(=O)(=O)c2cn(Cc3cccc(Cl)c3)c3ccccc23)no1 [compound 32, 2-((1-(3-chlorobenzyl)-1H-indol-3-yl)sulfonyl)-N-(5-methylisoxazol-3-yl)acetamide]
Efficacy (% ACh maximum at 30 μM): 96%
EC50: 5.82 µM

COc1cccc(Cn2cc(S(=O)(=O)CC(=O)Nc3cc(C)on3)c3ccccc32)c1 [compound 33, 2-((1-(3-methoxybenzyl)-1H-indol-3-yl)sulfonyl)-N-(5-methylisoxazol-3-yl)acetamide]
Efficacy (% ACh maximum at 30 μM): 79%
EC50: 6.54 µM

O=C(CS(=O)(=O)c1cn(Cc2cccc(Br)c2)c2cc(F)cc(F)c12)NC1COC1 [compound 34, 2-((1-(3-bromobenzyl)-4,6-difluoro-1H-indol-3-yl)sulfonyl)-N-(oxetan-3-yl)acetamide]
Efficacy (% ACh maximum at 30 μM): 43%
EC50: > 10 µM

O=C(CS(=O)(=O)c1cn(Cc2cccc(Br)c2)c2cc(F)cc(F)c12)Nc1cccnc1 [compound 35, 2-((1-(3-bromobenzyl)-4,6-difluoro-1H-indol-3-yl)sulfonyl)-N-(pyridin-3-yl)acetamide]
Efficacy (% ACh maximum at 30 μM): 42%
EC50: > 10 µM

O=C(CS(=O)(=O)c1cn(Cc2cccc(-c3cncnc3)c2)c2cc(F)cc(F)c12)Nc1ccccn1 [compound 36, 2-((4,6-difluoro-1-(3-(pyrimidin-5-yl)benzyl)-1H-indol-3-yl)sulfonyl)-N-(pyridin-2-yl)acetamide]
Efficacy (% ACh maximum at 30 μM): 45%
EC50: > 10 µM

O=C(CS(=O)(=O)c1cn(Cc2cccc(Br)c2)c2cc(F)cc(F)c12)Nc1cncnc1 [compound 37, 2-((1-(3-bromobenzyl)-4,6-difluoro-1H-indol-3-yl)sulfonyl)-N-(pyrimidin-5-yl)acetamide]
Efficacy (% ACh maximum at 30 μM): 48%
EC50: > 10 µM

O=C(CS(=O)(=O)c1cn(Cc2cccc(Br)c2)c2cc(F)cc(F)c12)Nc1cncs1 [compound 38, 2-((1-(3-bromobenzyl)-4,6-difluoro-1H-indol-3-yl)sulfonyl)-N-(thiazol-5-yl)acetamide]
Efficacy (% ACh maximum at 30 μM): 49%
EC50: > 10 µM

O=C(CS(=O)(=O)c1cn(Cc2cccc(Br)c2)c2cc(F)cc(F)c12)NCc1ccccn1 [compound 39, 2-((1-(3-bromobenzyl)-4,6-difluoro-1H-indol-3-yl)sulfonyl)-N-(pyridin-2-ylmethyl)acetamide]
Efficacy (% ACh maximum at 30 μM): 34%
EC50: > 10 µM

COc1ncccc1-c1cccc(Cn2cc(S(=O)(=O)CC(=O)Nc3ccccn3)c3c(F)cc(F)cc32)c1 [compound 40, 2-((4,6-difluoro-1-(3-(2-methoxypyridin-3-yl)benzyl)-1H-indol-3-yl)sulfonyl)-N-(pyridin-2-yl)acetamide]
Efficacy (% ACh maximum at 30 μM): 37%
EC50: > 10 µM

Cc1cc(NC(=O)CSc2c[nH]c3ccccc23)no1 [compound 41, 2-(1H-indol-3-ylsulfanyl)-N-(5-methyl-1,2-oxazol-3-yl)acetamide]
EC50: > 10 µM

Cc1cc(NC(=O)CSc2cn(Cc3ccccc3Cl)c3ccccc23)no1 [compound 42, 2-({1-[(2-chlorophenyl)methyl]-1H-indol-3-yl}sulfanyl)-N-(5-methyl-1,2-oxazol-3-yl)acetamide]
EC50: > 10 µM

Cc1cc(NC(=O)CS(=O)(=O)c2cn(Cc3ccccc3F)c3ccccc23)no1 [compound 43, 2-{1-[(2-fluorophenyl)methyl]-1H-indole-3-sulfonyl}-N-(5-methyl-1,2-oxazol-3-yl)acetamide]
EC50: > 10 µM

Cc1cc(NC(=O)CS(=O)(=O)c2cn(Cc3ccc(F)nc3)c3ccccc23)no1 [compound 44, 2-{1-[(6-fluoropyridin-3-yl)methyl]-1H-indole-3-sulfonyl}-N-(5-methyl-1,2-oxazol-3-yl)acetamide]
EC50: > 10 µM

Cc1cc(NC(=O)CS(=O)(=O)c2cn(Cc3cccc(C#N)c3)c3ccccc23)no1 [compound 45, 2-{1-[(3-cyanophenyl)methyl]-1H-indole-3-sulfonyl}-N-(5-methyl-1,2-oxazol-3-yl)acetamide]
EC50: > 10 µM

COc1ccc(Cn2cc(S(=O)(=O)CC(=O)Nc3cc(C)on3)c3ccccc32)cc1 [compound 46, 2-{1-[(4-methoxyphenyl)methyl]-1H-indole-3-sulfonyl}-N-(5-methyl-1,2-oxazol-3-yl)acetamide]
EC50: > 10 µM

COc1ccccc1Cn1cc(S(=O)(=O)CC(=O)Nc2cc(C)on2)c2ccccc21 [compound 47, 2-{1-[(2-methoxyphenyl)methyl]-1H-indole-3-sulfonyl}-N-(5-methyl-1,2-oxazol-3-yl)acetamide]
EC50: > 10 µM

Cc1cc(NC(=O)CS(=O)(=O)c2cn(Cc3ccc(Cl)cc3)c3ccccc23)no1 [compound 48, 2-{1-[(4-chlorophenyl)methyl]-1H-indole-3-sulfonyl}-N-(5-methyl-1,2-oxazol-3-yl)acetamide]
EC50: > 10 µM

Source: patent publication US8772509B2, “Indole compounds as positive allosteric modulators of the muscarinic receptor” (Vanderbilt University, priority 2010, dated 2014)
